# Test results as given in patent US11214803B2, “Modulators of YAP1 expression” (Ionis Pharmaceuticals, Inc., priority 2019, dated 2022).
# Strand notation (5' to 3'): a small letter for the sugar, then the base; units joined by * are phosphorothioate-linked, units joined directly phosphodiester-linked; [ ] holds rarer units or linkages, { } end groups; capitals alone tell only the bases. k = constrained ethyl (cEt); [5mC] = 5-methylcytosine; d = 2'-deoxy (DNA)
# Test system: Yap1 mRNA
# Assay: Antisense inhibition of human Yap1 in A-431 cells by cEt gapmers, single dose (Example 2, RTS4814)
# Type: cell-based
# Conditions: Table 18; A-431 cells, 5,000 cells per well, free uptake, 2,000 nM modified oligonucleotide, approx. 48 hours; RTS4814; normalized to RIBOGREEN; Yap1 mRNA as percent of untreated control
# Procedure, shortened: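 A-431 cells (5,000/well) took up 2,000 nM 3-10-3 cEt gapmer by free uptake for ~48 h. Yap1 mRNA was quantified by qRT-PCR with primer probe set RTS4814, normalized to RIBOGREEN total RNA, and reported as % of untreated control.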
row,Substance,YAP1 (% UTC)
1,1075204 (antisense kG*kT*kT*dA*dA*dA*d[5mC]*dA*d[5mC]*dA*dT*d[5mC]*dT*k[5mC]*kA*kG) [Compound 1075204],43 % UTC
2,1075236 (antisense kT*kA*kT*dA*dA*dT*dA*d[5mC]*d[5mC]*dA*d[5mC]*dA*dA*kA*kG*kT) [Compound 1075236],81 % UTC
3,1075268 (antisense kT*kA*kT*dT*dA*dA*d[5mC]*d[5mC]*dT*dG*dG*dA*dG*kA*kG*kT) [Compound 1075268],47 % UTC
4,1075300 (k[5mC]*kG*kT*dG*dA*dA*dA*dA*dG*dA*dA*dA*dG*kG*k[5mC]*k[5mC]; antisense) [Compound 1075300],98 % UTC

# Same assay, conditions: Table 19; A-431 cells, 5,000 cells per well, free uptake, 2,000 nM modified oligonucleotide, approx. 48 hours; RTS4814; normalized to RIBOGREEN; Yap1 mRNA as percent of untreated control
row,Substance,YAP1 (% UTC)
1,1075205 (antisense kA*kT*kT*dA*dA*dA*dT*dG*dA*dG*d[5mC]*dA*d[5mC]*k[5mC]*kA*k[5mC]) [Compound 1075205],29 % UTC
2,1075237 (antisense kG*k[5mC]*kT*dG*dA*dA*dA*dA*dT*dG*d[5mC]*dT*dA*kA*k[5mC]*kT) [Compound 1075237],105 % UTC
3,1075269 (antisense kT*kT*kA*dT*dT*dA*dA*d[5mC]*d[5mC]*dT*dG*dG*dA*kG*kA*kG) [Compound 1075269],13 % UTC
4,1075301 (k[5mC]*kA*kG*d[5mC]*dA*dA*d[5mC]*dA*d[5mC]*d[5mC]*dT*dA*dA*kG*kG*kA; antisense) [Compound 1075301],92 % UTC

# Same assay, conditions: Table 20; Yap1 mRNA, percent of untreated control; 3-10-3 cEt gapmers targeting SEQ ID NO.: 1 and 2
row,Substance,YAP1 (% UTC)
1,1075206 (antisense kT*kA*kT*dT*dA*dA*dA*dT*dG*dA*dG*d[5mC]*dA*k[5mC]*k[5mC]*kA) [Compound 1075206],36 % UTC
2,1075238 (antisense k[5mC]*kT*kT*dA*dA*dA*d[5mC]*dA*dG*dG*dT*dG*d[5mC]*k[5mC]*kA*kA) [Compound 1075238],24 % UTC
3,1075270 (antisense k[5mC]*kT*kT*dT*dA*dT*dT*dA*dA*d[5mC]*d[5mC]*dT*dG*kG*kA*kG) [Compound 1075270],18 % UTC
4,1075302 (k[5mC]*k[5mC]*kT*dT*dA*dA*dA*dG*d[5mC]*dT*dT*d[5mC]*d[5mC]*kA*k[5mC]*k[5mC]; antisense) [Compound 1075302],75 % UTC

# Same assay, conditions: Table 21; Yap1 mRNA, percent of untreated control; 3-10-3 cEt gapmers targeting SEQ ID NO.: 1 and 2
row,Substance,YAP1 (% UTC)
1,1075207 (antisense k[5mC]*kT*kA*dT*dT*dA*dA*dA*dT*dG*dA*dG*d[5mC]*kA*k[5mC]*k[5mC]) [Compound 1075207],4 % UTC
2,1075239 (antisense kT*k[5mC]*kT*dT*dA*dA*dA*d[5mC]*dA*dG*dG*dT*dG*k[5mC]*k[5mC]*kA) [Compound 1075239],27 % UTC
3,1075271 (antisense kG*kA*kT*dG*dT*dG*dA*dT*d[5mC]*dT*dG*dT*dG*kA*kG*kA) [Compound 1075271],11 % UTC
4,1075303 (kT*kA*kA*dA*d[5mC]*dT*dA*dA*dT*d[5mC]*dT*dA*d[5mC]*kA*kA*k[5mC]; antisense) [Compound 1075303],100 % UTC

# Same assay, conditions: Table 22; Yap1 mRNA as percent of untreated control; 3-10-3 cEt gapmers; single dose
row,Substance,YAP1 (% UTC)
1,1075208 (antisense kA*k[5mC]*kT*dG*dA*dA*d[5mC]*dA*d[5mC]*dA*dG*dG*d[5mC]*kT*kA*k[5mC]) [Compound 1075208],24 % UTC
2,1075240 (antisense kT*kA*kA*dA*d[5mC]*dG*dG*dT*dT*dT*dA*dT*dA*kT*kT*k[5mC]) [Compound 1075240],16 % UTC
3,1075272 (antisense kA*kA*kT*dT*dA*dG*d[5mC]*d[5mC]*dA*dG*d[5mC]*dA*dT*kG*k[5mC]*kA) [Compound 1075272],110 % UTC
4,1075304 (k[5mC]*kA*k[5mC]*dG*dG*dG*dT*dA*d[5mC]*d[5mC]*dA*dG*dA*kA*kA*kA; antisense) [Compound 1075304],50 % UTC

# Same assay, conditions: Table 23; Yap1 mRNA as percent of untreated control; 3-10-3 cEt gapmers; single dose
row,Substance,YAP1 (% UTC)
1,1075209 (antisense k[5mC]*kA*kT*d[5mC]*dA*dA*d[5mC]*dA*dA*dT*dG*dG*dT*k[5mC]*kT*kA) [Compound 1075209],11 % UTC
2,1075241 (antisense kG*kA*kT*dA*dA*dT*dT*dA*d[5mC]*dT*dA*dA*d[5mC]*kT*kG*kA) [Compound 1075241],31 % UTC
3,1075273 (antisense kA*kA*kA*dT*dT*dA*dT*dG*dG*dT*d[5mC]*dA*dG*kG*k[5mC]*kT) [Compound 1075273],18 % UTC

# Same assay, conditions: Table 24; Yap1 mRNA as percent of untreated control; 3-10-3 cEt gapmers targeting SEQ ID NO.: 1, and 2
row,Substance,YAP1 (% UTC)
1,1075210 (antisense kG*kT*kA*dT*dT*dT*dT*dA*dA*d[5mC]*d[5mC]*dT*dA*kA*kA*k[5mC]) [Compound 1075210],100 % UTC
2,1075242 (antisense k[5mC]*kA*kG*dG*dG*dA*dT*dA*dA*dT*dT*dA*d[5mC]*kT*kA*kA) [Compound 1075242],7 % UTC
3,1075274 (antisense kA*kA*kT*dA*dA*dT*d[5mC]*d[5mC]*dA*dG*d[5mC]*d[5mC]*dT*kA*kG*kG) [Compound 1075274],86 % UTC

# Same assay, conditions: Table 25; Yap1 mRNA as percent of untreated control; 3-10-3 cEt gapmers targeting SEQ ID NO.: 1, and 2
row,Substance,YAP1 (% UTC)
1,1075179 (antisense kA*kA*kT*dT*dA*dG*d[5mC]*d[5mC]*dG*dG*dT*d[5mC]*d[5mC]*k[5mC]*kA*kG) [Compound 1075179],107 % UTC
2,1075211 (antisense kA*kA*kT*dA*dA*dA*dG*dG*dG*dT*d[5mC]*d[5mC]*dT*kA*kA*k[5mC]) [Compound 1075211],91 % UTC
3,1075243 (antisense k[5mC]*kT*kT*dA*dG*dT*dA*dA*dG*dA*dA*dT*dT*kG*kT*k[5mC]) [Compound 1075243],4 % UTC
4,1075275 (antisense k[5mC]*kT*kA*dG*dA*dA*dA*dG*dG*d[5mC]*d[5mC]*dA*dT*kG*kT*kA) [Compound 1075275],76 % UTC

# Same assay, conditions: Table 32; Yap1 mRNA, percent of untreated control; 3-10-3 cEt gapmers targeting SEQ ID NO.: 1, and 2
row,Substance,YAP1 (% UTC)
1,1075186 (kA*kA*kA*dT*d[5mC]*dG*dA*dT*dT*dA*dT*dT*d[5mC]*kA*kG*kA; antisense) [compound 1075186],73 % UTC
2,1075218 (k[5mC]*kT*kT*dA*dA*d[5mC]*dA*d[5mC]*dT*dG*dG*dT*dA*kA*kG*kA; antisense) [compound 1075218],97 % UTC
3,1075250 (kA*kA*kT*dT*dA*d[5mC]*dG*dA*dT*dT*dA*dG*dA*kT*k[5mC]*kA; antisense) [compound 1075250],55 % UTC
4,1075282 (antisense kG*kA*kA*dA*dA*dA*dT*dG*dA*dG*d[5mC]*d[5mC]*d[5mC]*kG*kG*kT) [compound 1075282],103 % UTC

# Same assay, conditions: Table 33; Yap1 mRNA, percent of untreated control; 3-10-3 cEt gapmers targeting SEQ ID NO.: 1, and 2
row,Substance,YAP1 (% UTC)
1,1075187 (kG*k[5mC]*k[5mC]*d[5mC]*dA*dA*dG*dG*dA*dG*dG*dA*dA*kA*kT*k[5mC]; antisense) [compound 1075187],77 % UTC
2,1075219 (k[5mC]*k[5mC]*kT*dT*dA*dA*d[5mC]*dA*d[5mC]*dT*dG*dG*dT*kA*kA*kG; antisense) [compound 1075219],117 % UTC
3,1075251 (kT*kA*kA*dT*dT*dA*d[5mC]*dG*dA*dT*dT*dA*dG*kA*kT*k[5mC]; antisense) [compound 1075251],79 % UTC
4,1075283 (antisense k[5mC]*kG*kA*dA*dT*dA*dT*dA*dG*dA*dA*dA*dA*kA*kT*kG) [compound 1075283],90 % UTC

# Same assay, conditions: Yap1 mRNA as percent of untreated control; A-431 cells; 3-10-3 cEt gapmers targeting SEQ ID NO.: 1, and 2; Table 30
row,Substance,YAP1 (% UTC)
1,1075184 (k[5mC]*kA*kA*dG*dA*dA*d[5mC]*dA*d[5mC]*dT*dG*dG*dT*kA*kT*kT; antisense) [compound 1075184],67 % UTC
2,1075216 (kT*kA*kT*dT*dT*dT*dA*d[5mC]*dA*d[5mC]*dG*dA*dA*k[5mC]*kT*kA; antisense) [compound 1075216],55 % UTC
3,1075248 (kG*kT*kA*d[5mC]*dA*dA*dA*dA*dA*dG*d[5mC]*dG*dG*kT*k[5mC]*kG; antisense) [compound 1075248],64 % UTC
4,1075280 (antisense kG*kA*kA*d[5mC]*dT*dA*dT*dA*d[5mC]*dT*dA*dA*d[5mC]*kA*kT*kT) [compound 1075280],57 % UTC

# Same assay, conditions: Yap1 mRNA as percent of untreated control; A-431 cells; 3-10-3 cEt gapmers targeting SEQ ID NO.: 1, and 2; Table 31
row,Substance,YAP1 (% UTC)
1,1075185 (kG*k[5mC]*k[5mC]*d[5mC]*dA*dA*dG*dA*dA*d[5mC]*dA*d[5mC]*dT*kG*kG*kT; antisense) [compound 1075185],78 % UTC
2,1075217 (kT*kT*kA*dT*dT*dT*dT*dA*d[5mC]*dA*d[5mC]*dG*dA*kA*k[5mC]*kT; antisense) [compound 1075217],71 % UTC
3,1075281 (antisense k[5mC]*kA*kG*d[5mC]*dA*dA*dA*dA*dG*dT*dA*d[5mC]*d[5mC]*kA*kT*kG) [compound 1075281],36 % UTC
